Consider 33 molecules from US11192877B2, “3-(5-hydroxy-1-oxoisoindolin-2-yl)piperidine-2,6-dione derivatives and uses thereof” (Novartis AG, priority 2018, dated 2021).

The target of the test is IKZF2 (Helios) (Homo sapiens, UniProt Q96SW2+Q9UKS7). Nature of the test: Prolabel quantification of IKZF2 protein levels in 293GT cells. Type of test: cell-based. Particulars: for IKZF2 % protein reduction at 10 µM: 24 h, read-out: IKZF2 % protein reduction at 10 μM, 24 h.
Where [1] appears, read: Pro-label assay, 293GT cells, 10 μM.

Where a name gives a salt, the structure may show the parent alone. Read-outs that look alike come from different tables or passages of the source.

Sequence of IKZF2 (Helios) (Q9UKS7 whole entry): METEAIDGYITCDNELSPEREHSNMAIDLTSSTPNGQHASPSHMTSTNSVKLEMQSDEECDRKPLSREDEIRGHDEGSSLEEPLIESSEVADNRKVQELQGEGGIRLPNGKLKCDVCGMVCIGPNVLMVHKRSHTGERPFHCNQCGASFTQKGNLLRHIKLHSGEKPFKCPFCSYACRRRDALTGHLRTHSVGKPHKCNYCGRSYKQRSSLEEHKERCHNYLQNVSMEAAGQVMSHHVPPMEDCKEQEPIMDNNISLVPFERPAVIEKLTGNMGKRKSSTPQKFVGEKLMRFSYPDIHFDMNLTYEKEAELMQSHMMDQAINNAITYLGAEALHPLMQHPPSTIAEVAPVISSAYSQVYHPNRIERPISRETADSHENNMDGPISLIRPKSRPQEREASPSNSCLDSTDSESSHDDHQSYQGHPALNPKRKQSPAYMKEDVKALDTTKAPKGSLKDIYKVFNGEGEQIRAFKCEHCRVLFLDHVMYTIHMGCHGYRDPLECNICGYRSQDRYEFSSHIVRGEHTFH
Sequence of IKZF2 (Helios) (Q96SW2 whole entry): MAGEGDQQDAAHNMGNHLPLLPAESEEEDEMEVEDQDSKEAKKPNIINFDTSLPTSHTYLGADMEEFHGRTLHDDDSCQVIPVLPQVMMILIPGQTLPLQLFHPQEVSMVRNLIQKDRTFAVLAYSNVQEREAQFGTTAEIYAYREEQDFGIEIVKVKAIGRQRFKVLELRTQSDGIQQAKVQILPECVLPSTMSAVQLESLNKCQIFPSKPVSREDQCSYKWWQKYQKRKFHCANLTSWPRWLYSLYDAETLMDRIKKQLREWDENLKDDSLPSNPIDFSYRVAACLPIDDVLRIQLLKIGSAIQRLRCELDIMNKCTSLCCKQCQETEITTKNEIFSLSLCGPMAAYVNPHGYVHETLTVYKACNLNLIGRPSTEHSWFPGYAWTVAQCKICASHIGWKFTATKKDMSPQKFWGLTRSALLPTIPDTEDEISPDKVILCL
Sequence of IKZF2 (Helios) (Q16531 whole entry partner): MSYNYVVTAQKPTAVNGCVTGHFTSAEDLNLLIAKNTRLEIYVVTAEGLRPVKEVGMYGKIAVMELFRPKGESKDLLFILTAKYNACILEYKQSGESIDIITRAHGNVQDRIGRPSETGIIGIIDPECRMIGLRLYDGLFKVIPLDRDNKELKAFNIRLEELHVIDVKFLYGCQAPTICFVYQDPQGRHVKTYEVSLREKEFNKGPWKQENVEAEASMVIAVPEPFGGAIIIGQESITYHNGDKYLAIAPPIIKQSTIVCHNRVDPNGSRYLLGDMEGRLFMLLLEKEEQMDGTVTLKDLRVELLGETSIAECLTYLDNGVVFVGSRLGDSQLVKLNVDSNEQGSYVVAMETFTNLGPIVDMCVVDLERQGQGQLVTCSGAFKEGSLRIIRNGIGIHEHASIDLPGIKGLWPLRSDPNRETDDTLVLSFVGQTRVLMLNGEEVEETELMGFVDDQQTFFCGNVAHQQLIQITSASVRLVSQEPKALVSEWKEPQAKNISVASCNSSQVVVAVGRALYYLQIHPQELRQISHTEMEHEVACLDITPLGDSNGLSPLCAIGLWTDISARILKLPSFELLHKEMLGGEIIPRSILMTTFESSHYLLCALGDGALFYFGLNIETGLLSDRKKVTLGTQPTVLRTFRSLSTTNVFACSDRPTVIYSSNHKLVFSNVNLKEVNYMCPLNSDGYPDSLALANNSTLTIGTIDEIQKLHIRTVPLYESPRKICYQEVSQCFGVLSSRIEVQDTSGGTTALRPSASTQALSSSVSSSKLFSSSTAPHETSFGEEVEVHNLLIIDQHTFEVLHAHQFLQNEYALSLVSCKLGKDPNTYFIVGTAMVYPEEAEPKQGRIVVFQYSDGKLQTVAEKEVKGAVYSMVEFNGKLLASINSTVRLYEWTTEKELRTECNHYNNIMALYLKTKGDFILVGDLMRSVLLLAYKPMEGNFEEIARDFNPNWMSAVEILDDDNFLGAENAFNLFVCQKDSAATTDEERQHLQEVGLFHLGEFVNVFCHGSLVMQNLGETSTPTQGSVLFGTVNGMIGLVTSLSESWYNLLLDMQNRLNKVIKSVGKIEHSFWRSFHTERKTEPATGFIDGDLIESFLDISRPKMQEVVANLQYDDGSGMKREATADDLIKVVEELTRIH

With `CCN(CCF)[C@H]1CCC[C@@H]1Oc1ccc2c(c1)CN(C1CCC(=O)NC1=O)C2=O` (stereo partly drawn) [I-24, 3-(5-(((1S,2S)-2-(ethyl(2-fluoroethyl)amino)cyclopentyl)oxy)-1-oxoisoindolin-2-yl)piperidine-2,6-dione], the IKZF2 % protein reduction at 10 µM under setting [1] came out at 80%. On to `O=C1CCC(N2Cc3cc(O[C@H]4CCC[C@@H]4N4C[C@H]5COC[C@H]5C4)ccc3C2=O)C(=O)N1` (stereo partly drawn) [I-144, 3-(1-oxo-5-(((1S,2S)-2-((3aR,6aS)-tetrahydro-1H-furo[3,4-c]pyrrol-5(3H)-yl)cyclopentyl)oxy)isoindolin-2-yl)piperidine-2,6-dione], for which the IKZF2 % protein reduction at 10 µM under setting [1] turned out to be 88%. With `O=C1CCN([C@H]2CCC[C@@H]2Oc2ccc3c(c2)CN(C2CCC(=O)NC2=O)C3=O)CC1` (stereo partly drawn) [I-137, 3-(1-oxo-5-(((1S,2S)-2-(4-oxopiperidin-1-yl)cyclopentyl)oxy)isoindolin-2-yl)piperidine-2,6-dione], the IKZF2 % protein reduction at 10 µM under setting [1] amounted to 80%. For `N[C@H]1CCC[C@@H]1Oc1ccc2c(c1)CN(C1CCC(=O)NC1=O)C2=O` (stereo partly drawn) [Cmpd I-12], under setting [1], the IKZF2 % protein reduction at 10 µM worked out at 65%. On the same count and under the same terms, for `CO[C@H]1CCCC[C@@H]1Oc1ccc2c(c1)CN(C1CCC(=O)NC1=O)C2=O` (stereo partly drawn) [I-4, 3-(5-(((1S,2S)-2-methoxycyclohexyl)oxy)-1-oxoisoindolin-2-yl)piperidine-2,6-dione] the value was 25%; for `O=C1CCC(N2Cc3cc(O[C@H]4CCC[C@@H]4NCc4ccncc4)ccc3C2=O)C(=O)N1` (stereo partly drawn) [I-151, 3-(1-oxo-5-(((1S,2S)-2-((pyridin-4-ylmethyl)amino)cyclopentyl)oxy)isoindolin-2-yl)piperidine-2,6-dione], 53%; for `O=C1CCC(N2Cc3cc(O[C@H]4CCCC[C@H]4NCc4ccccc4)ccc3C2=O)C(=O)N1` (stereo partly drawn) [I-2, 3-(5-(((1S,2R)-2-(benzylamino)cyclohexyl)oxy)-1-oxoisoindolin-2-yl)piperidine-2,6-dione], 10%. Turning to `CC1(CN[C@H]2CCCC[C@@H]2Oc2ccc3c(c2)CN(C2CCC(=O)NC2=O)C3=O)CCOCC1` (stereo partly drawn) [I-102, 3-(5-(((1S,2S)-2-(((4-methyltetrahydro-2H-pyran-4-yl)methyl)amino)cyclohexyl)oxy)-1-oxoisoindolin-2-yl)piperidine-2,6-dione], under setting [1], the IKZF2 % protein reduction at 10 µM was 73%. As for `O=C1CCC(N2Cc3cc(O[C@H]4CCCC[C@@H]4N4CC(OCc5ccccc5)C4)ccc3C2=O)C(=O)N1` (stereo partly drawn) [I-54, 3-(5-(((1S,2S)-2-(3-(benzyloxy)azetidin-1-yl)cyclohexyl)oxy)-1-oxoisoindolin-2-yl)piperidine-2,6-dione], under setting [1], the IKZF2 % protein reduction at 10 µM was found to be 91%. `COc1ccc(CN[C@H]2CCCC[C@@H]2Oc2ccc3c(c2)CN(C2CCC(=O)NC2=O)C3=O)cn1` (stereo partly drawn) [I-92, 3-(5-(((1S,2S)-2-(((6-methoxypyridin-3-yl)methyl)amino)cyclohexyl)oxy)-1-oxoisoindolin-2-yl)piperidine-2,6-dione]: the IKZF2 % protein reduction at 10 µM under setting [1] was determined as 60%. The same measure, in the same setting: for `CCN(CC)[C@H]1CCC[C@@H]1Oc1cc2c(cc1F)C(=O)N(C1CCC(=O)NC1=O)C2` (stereo partly drawn) [I-216, 3-(5-(((1S,2S)-2-(diethylamino)cyclopentyl)oxy)-6-fluoro-1-oxoisoindolin-2-yl)piperidine-2,6-dione] the value was 60%. Regarding `CO[C@@H]1CCN(C2CCCC2Oc2ccc3c(c2)CN(C2CCC(=O)NC2=O)C3=O)C1` (single isomer, unassigned) [I-192], under setting [1], the IKZF2 % protein reduction at 10 µM stood at 77%. On to `CCN(CC1CC(C)(C#N)C1)[C@H]1CCC[C@@H]1Oc1ccc2c(c1)CN(C1CCC(=O)NC1=O)C2=O` (stereo partly drawn) [I-163, 3-((((1S,2S)-2-((2-(2,6-dioxopiperidin-3-yl)-1-oxoisoindolin-5-yl)oxy)cyclopentyl)(ethyl)amino)methyl)-1-methylcyclobutane-1-carbonitrile], for which, under setting [1], the IKZF2 % protein reduction at 10 µM worked out at 78%.

`O=C1CCC(N2Cc3cc(O[C@@H]4CCCC[C@@H]4O)ccc3C2=O)C(=O)N1` (relative stereo) [I-37, 3-(5-(((1R*, 2S*)-2-hydroxycyclohexyl)oxy)-1-oxoisoindolin-2-yl)piperidine-2,6-dione]: under setting [1], the IKZF2 % protein reduction at 10 µM came to 0%. Turning to `CC(C)(O)CCN[C@H]1CCCC[C@@H]1Oc1ccc2c(c1)CN(C1CCC(=O)NC1=O)C2=O` (stereo partly drawn) [I-86, 3-(5-(((1S,2S)-2-((3-hydroxy-3-methylbutyl)amino)cyclohexyl)oxy)-1-oxoisoindolin-2-yl)piperidine-2,6-dione], under setting [1], the IKZF2 % protein reduction at 10 µM turned out to be 76%. Turning to `CCOC1CN([C@H]2CCCCC[C@@H]2Oc2ccc3c(c2)CN(C2CCC(=O)NC2=O)C3=O)C1` (stereo partly drawn) [I-55, 3-(5-(((1S,2S)-2-(3-ethoxyazetidin-1-yl)cycloheptyl)oxy)-1-oxoisoindolin-2-yl)piperidine-2,6-dione], the IKZF2 % protein reduction at 10 µM under setting [1] stood at 91%. On the same count and under the same terms, under `N[C@H]1CCC[C@@H]1Oc1cc2c(cc1F)C(=O)N(C1CCC(=O)NC1=O)C2` (stereo partly drawn) [I-215, 3-(5-(((1S,2S)-2-aminocyclopentyl)oxy)-6-fluoro-1-oxoisoindolin-2-yl)piperidine-2,6-dione] stands 30%; under `CO[C@H]1CCC[C@@H]1Oc1ccc2c(c1)CN(C1CCC(=O)NC1=O)C2=O` (stereo partly drawn) [I-26, 3-(5-(((1S,2S)-2-methoxycyclopentyl)oxy)-1-oxoisoindolin-2-yl)piperidine-2,6-dione], 0%. For `O=C1CCC(N2Cc3cc(OC4CCCC4N4CCC5(CCOC5)CC4)ccc3C2=O)C(=O)N1` (single isomer, unassigned) [I-176, 3-(5-((2-(2-oxa-8-azaspiro[4.5]decan-8-yl)cyclopentyl)oxy)-1-oxoisoindolin-2-yl)piperidine-2,6-dione], the IKZF2 % protein reduction at 10 µM under setting [1] came to 89%.

On to `O=C1CCC(N2Cc3cc(O[C@H]4CCCC[C@@H]4NCC4CC(F)(F)C4)ccc3C2=O)C(=O)N1` (stereo partly drawn) [I-122, 3-(5-(((1S,2S)-2-(((3,3-difluorocyclobutyl)methyl)amino)cyclohexyl)oxy)-1-oxoisoindolin-2-yl)piperidine-2,6-dione], for which the IKZF2 % protein reduction at 10 µM under setting [1] was 84%.

Take `O=C1CCC(N2Cc3cc(O[C@H]4CCC[C@@H]4NCc4ccc5[nH]ccc5c4)ccc3C2=O)C(=O)N1` (stereo partly drawn) [I-174, 3-(5-(((1S,2S)-2-(((1H-indol-5-yl)methyl)amino)cyclopentyl)oxy)-1-oxoisoindolin-2-yl)piperidine-2,6-dione]: the IKZF2 % protein reduction at 10 µM under setting [1] was 86%.

With `O=C1CCC(N2Cc3cc(O[C@H]4CC[C@@H]4NCc4ccccc4)ccc3C2=O)C(=O)N1` (single isomer, unassigned) [I-44], under setting [1], the IKZF2 % protein reduction at 10 µM came to 42%. As to `CN(C)[C@H]1CCCC[C@@H]1Oc1ccc2c(c1)CN(C1CCC(=O)NC1=O)C2=O` (stereo partly drawn) [I-80, 3-(5-(((1S,2S)-2-(dimethylamino)cyclohexyl)oxy)-1-oxoisoindolin-2-yl)piperidine-2,6-dione], the IKZF2 % protein reduction at 10 µM under setting [1] was 65%. On to `COC1CCN([C@H]2CCC[C@@H]2Oc2ccc3c(c2)CN(C2CCC(=O)NC2=O)C3=O)CC1` (stereo partly drawn) [I-154, 3-(5-(((1S,2S)-2-(4-methoxypiperidin-1-yl)cyclopentyl)oxy)-1-oxoisoindolin-2-yl)piperidine-2,6-dione], for which the IKZF2 % protein reduction at 10 µM under setting [1] turned out to be 83%.

Consider `CO[C@H]1CC[C@@H](CN[C@H]2CCC[C@@H]2Oc2ccc3c(c2)CN(C2CCC(=O)NC2=O)C3=O)CC1` (stereo partly drawn) [I-191, 3-(5-(((1S,2S)-2-((((1s,4R)-4-methoxycyclohexyl)methyl)amino)cyclopentyl)oxy)-1-oxoisoindolin-2-yl)piperidine-2,6-dione], for which the IKZF2 % protein reduction at 10 µM under setting [1] is 83%. With `O=C1CCC(N2Cc3cc(O[C@H]4CCC[C@@H]4N4CC5CCC(C5)C4)ccc3C2=O)C(=O)N1` (stereo partly drawn) [I-16, 3-(5-(((1S,2S)-2-(3-azabicyclo[3.2.1]octan-3-yl)cyclopentyl)oxy)-1-oxoisoindolin-2-yl)piperidine-2,6-dione], the IKZF2 % protein reduction at 10 µM under setting [1] was determined as 85%.

Take `O=C1CCC(N2Cc3cc(O[C@H]4CCCC[C@@H]4N4CC(OCC(F)(F)F)C4)ccc3C2=O)C(=O)N1` (stereo partly drawn) [I-49, 3-(1-oxo-5-(((1S,2S)-2-(3-(2,2,2-trifluoroethoxy)azetidin-1-yl)cyclohexyl)oxy)isoindolin-2-yl)piperidine-2,6-dione]: the IKZF2 % protein reduction at 10 µM under setting [1] was 86%. `O=C1CCC(N2Cc3cc(O[C@H]4CCCC[C@@H]4NCc4cnc5ccnn5c4)ccc3C2=O)C(=O)N1` (stereo partly drawn) [I-114, 3-(1-oxo-5-(((1S,2S)-2-((pyrazolo[1,5-a]pyrimidin-6-ylmethyl)amino)cyclohexyl)oxy)isoindolin-2-yl)piperidine-2,6-dione]: the IKZF2 % protein reduction at 10 µM under setting [1] amounted to 54%. On to `CCCN(CCC)[C@H]1CCCC[C@@H]1Oc1ccc2c(c1)CN(C1CCC(=O)NC1=O)C2=O` (stereo partly drawn) [I-72, 3-(5-(((1S,2S)-2-(dipropylamino)cyclohexyl)oxy)-1-oxoisoindolin-2-yl)piperidine-2,6-dione], for which the IKZF2 % protein reduction at 10 µM under setting [1] was found to be 57%. Consider `O=C1CCC(N2Cc3cc(O[C@H]4CCC[C@@H]4OCc4ccccc4)ccc3C2=O)C(=O)N1` (stereo partly drawn) [I-9, 3-(5-(((1S,2S)-2-(benzyloxy)cyclopentyl)oxy)-1-oxoisoindolin-2-yl)piperidine-2,6-dione], for which the IKZF2 % protein reduction at 10 µM under setting [1] stood at 0%. As for `N[C@H]1CCCC[C@@H]1Oc1ccc2c(c1)CN(C1CCC(=O)NC1=O)C2=O` (stereo partly drawn) [I-15, 3-(5-(((1S,2S)-2-aminocyclohexyl)oxy)-1-oxoisoindolin-2-yl)piperidine-2,6-dione hydrochloride], the IKZF2 % protein reduction at 10 µM was 50%. As for `O=C1CCC(N2Cc3cc(O[C@H]4CCC[C@@H]4N4Cc5ccccc5C4)ccc3C2=O)C(=O)N1` (stereo partly drawn) [I-156, 3-(5-(((1S,2S)-2-(isoindolin-2-yl)cyclopentyl)oxy)-1-oxoisoindolin-2-yl)piperidine-2,6-dione], the IKZF2 % protein reduction at 10 µM under setting [1] was determined as 70%.

As to `COC1CC(CNC2CCCCC2Oc2ccc3c(c2)CN(C2CCC(=O)NC2=O)C3=O)C1` (single isomer, unassigned) [I-100], the “IKZF2 % protein reduction at 10 μM, 24 h” value under setting [1] came out at 86%.
